Measurements: patent US4330529A, “Antibacterial composition” (Fujisawa Pharmaceutical Co., Ltd., priority 1979, dated 1982)
Values after ≈ are worked out from the molar mass of the structure shown. Read-outs that look alike come from different tables or passages of the source.

Tests used:
[1] = system: Staphylococcus epidermidis 1601-1; assay: MIC and FIC, Nutrient agar (Tests 2, 3); assay type: cell-based; conditions: 16011, S. epidermidis 1601-1, 20 h
Description: (§1) After the incubation was carried out at 37° C. for 20 hours, MIC values were determined.

[2] = system: Shigella flexneri Ia EW-8; assay: MIC and FIC, Nutrient agar (Test 2); assay type: cell-based; conditions: IAEW8, S. flexneri Ia EW-8, 20 h
Description: as §1

[3] = system: Salmonella typhimurium 1406; assay: MIC and FIC, Nutrient agar (Tests 2, 3); assay type: cell-based; conditions: Salmonella enterica, TYPHIMURIUM, 20 h
[4] = system: Salmonella paratyphi A-1015; assay: MIC and FIC, Nutrient agar (Test 2); assay type: cell-based; conditions: Salmonella enterica; S. paratyphi A-1015; 20 h
Description: as §1
(§2) FIC values and FIC Index were calculated in substantially the same manner as described in Test 1.

[5] = system: Enterobacter aerogenes 1402-10; assay: MIC and FIC, Nutrient agar (Tests 2, 3); assay type: cell-based; conditions: Klebsiella aerogenes, 140210, 20 h
[6] = system: Enterobacter cloacae 1401-4; assay: MIC and FIC, Nutrient agar (Tests 2, 3); assay type: cell-based; conditions: E. cloacae 1401-4
[7] = system: Proteus mirabilis 1432-75; assay: MIC and FIC, Nutrient agar (Tests 2, 3); assay type: cell-based; conditions: Proteus mirabilis, 143275, 20 h
[8] = system: Proteus morganii 1433-2; assay: MIC and FIC, Nutrient agar (Tests 2, 3); assay type: cell-based; conditions: Morganella morganii, 14332; P. morganii 1433-2; 20 h
Description: as §1

[9] = system: Proteus rettgeri 1434-3; assay: MIC and FIC, Nutrient agar (Test 3); assay type: cell-based; conditions: Providencia rettgeri, 14343; P. rettgeri 1434-3; 20 h
Description: as §1, §2

[10] = system: Pseudomonas aeruginosa 1101-76; assay: MIC and FIC, Nutrient agar (Test 3); assay type: cell-based; conditions: Pseudomonas aeruginosa, 110176, 20 h
[11] = system: Pseudomonas aeruginosa No.5; assay: MIC and FIC, Nutrient agar, multiple inoculator (Tests 4, 5); assay type: cell-based; conditions: Pseudomonas aeruginosa; P. aeruginosa No.5; 10^8 cells/ml, 20 h; read-out: MIC
Description: as §1

[12] = system: Pseudomonas aeruginosa No.7; assay: MIC and FIC, Nutrient agar, multiple inoculator (Test 4); assay type: cell-based; conditions: P. aeruginosa No.7, 10^8 cells/ml, 20 h
Description: as §1, §2

[13] = system: Pseudomonas aeruginosa No.9; assay: as above; assay type: cell-based; conditions: P. aeruginosa No.9, 10^8 cells/ml, 20 h
Description: as §1, §2

[14] = system: Escherichia coli No.14; assay: as above; assay type: cell-based; conditions: E. coli No.14, 10^8 cells/ml, 20 h
Description: as §1

[15] = system: Pseudomonas aeruginosa No.11; assay: MIC and FIC, Nutrient agar, multiple inoculator (Test 5); assay type: cell-based; conditions: Pseudomonas aeruginosa; P. aeruginosa No.11; 10^8 cells/ml, 20 h; read-out: MIC
Description: as §1, §2

[16] = system: Pseudomonas aeruginosa No.12; assay: as above; assay type: cell-based; conditions: Pseudomonas aeruginosa; P. aeruginosa No.12; 10^8 cells/ml, 20 h; read-out: MIC
Description: as §1, §2

[17] = system: Pseudomonas aeruginosa No.13; assay: as above; assay type: cell-based; conditions: Pseudomonas aeruginosa; P. aeruginosa No.13; 10^8 cells/ml, 20 h; read-out: MIC
Description: as §1, §2

[18] = system: Pseudomonas aeruginosa No.18; assay: as above; assay type: cell-based; conditions: Pseudomonas aeruginosa; P. aeruginosa No.18; 10^8 cells/ml, 20 h; read-out: MIC
Description: as §1, §2

[19] = system: Citrobacter freundii 35; assay: MIC and FIC, Nutrient agar (Tests 6, 7, 9); assay type: cell-based
[20] = system: Enterobacter aerogenes 7; assay: MIC and FIC, Nutrient agar (Tests 6, 7, 9); assay type: cell-based; conditions: Klebsiella aerogenes; E. aerogenes 7; 18 h; read-out: MIC
Description: as §2

[21] = system: Serratia marcescens 9; assay: MIC and FIC, Nutrient agar (Test 6); assay type: cell-based; conditions: Serratia marcescens; S. marcescens 9; 18 h; read-out: MIC
Description: as §2

[22] = system: Proteus vulgaris 5; assay: MIC and FIC, Nutrient agar (Test 6); assay type: cell-based; conditions: Proteus vulgaris; P. vulgaris 5; 18 h; read-out: MIC
Description: as §2

[23] = system: Enterobacter aerogenes 25; assay: microbe, parasite or virus in culture; conditions: Klebsiella aerogenes, 25, 18 h
[24] = system: Proteus vulgaris 7; assay: MIC and FIC, Nutrient agar (Tests 7, 9); assay type: cell-based; conditions: P. vulgaris 7
[25] = system: Pseudomonas aeruginosa 77; assay: MIC and FIC, Nutrient agar (Test 7); assay type: cell-based; conditions: P. aeruginosa 77, 18 h
Description: as §2

[26] = system: Staphylococcus aureus 2; assay: MIC and FIC, Nutrient agar (Test 7); assay type: cell-based; conditions: S. aureus 2, 18 h
Description: as §2

[27] = system: Serratia marcescens 27; assay: MIC and FIC, Nutrient agar (Test 7); assay type: cell-based; conditions: S. marcescens 27, 18 h
Description: as §2

[28] = system: Proteus mirabilis 5; assay: MIC and FIC, Nutrient agar (Test 7); assay type: cell-based; conditions: P. mirabilis 5, 18 h
Description: as §2

[29] = system: Pseudomonas aeruginosa 42; assay: MIC and FIC, Nutrient agar (Test 7); assay type: cell-based; conditions: Pseudomonas aeruginosa; P. aeruginosa 42; 18 h; read-out: MIC
Description: as §2

[30] = system: Staphylococcus aureus 1; assay: MIC and FIC, Nutrient agar (Test 7); assay type: cell-based; conditions: S. aureus 1, 18 h
Description: as §2

[31] = system: Escherichia coli 116; assay: MIC and FIC, Nutrient agar (Test 7); assay type: cell-based; conditions: E. coli 116, 18 h
Description: as §2

[32] = system: Enterobacter cloacae 18; assay: MIC and FIC, Nutrient agar (Tests 7, 9); assay type: cell-based; conditions: E. cloacae 18, 18 h
Description: as §2

[33] = system: Serratia marcescens 4; assay: MIC and FIC, Nutrient agar (Test 9); assay type: cell-based; conditions: S. marcescens 4, 18 h
Description: as §2

[34] = system: Proteus vulgaris 22; assay: MIC and FIC, Nutrient agar (Test 9); assay type: cell-based; conditions: P. vulgaris 22, 18 h
Description: as §2

[35] = system: Klebsiella pneumoniae 8; assay: Isobologram, growth in Nutrient broth in various combination ratios (Test 8); assay type: cell-based; design: key: +: the test microorganism grew; -: the test microorganism did not grow; conditions: gentamicin sulfate 0
Description: After the incubation was carried out at 37° C. for 18 hours, the growth of the test organism was observed.

[36] = system: Escherichia coli 99; assay: MIC and FIC, Nutrient agar (Test 6); conditions: Escherichia coli, 99, 18 h
Description: as §2

O=CN(O)CCCP(=O)(O)O [A (Table 2)]
MIC [1]: ≥ 400 µg/mL | MIC [2]: 1.56 µg/mL | MIC [3]: 6.25 µg/mL | MIC [4]: 6.25 µg/mL | MIC [5]: 6.25 µg/mL | MIC ([6]; 20 h, listed as A (Table 3)): 3.16 µg/mL | MIC ([6]; 20 h, listed as A (Table 4)): 3.13 µg/mL | MIC ([6]; Enterobacter cloacae, 14014, 20 h): 3.13 µg/mL | MIC [7]: 1.56 µg/mL | MIC [8]: ≥ 400 µg/mL | MIC [9]: 1.56 µg/mL | MIC [10]: 1.56 µg/mL | MIC [11]: 800 µg/mL | MIC [12]: 200 µg/mL | MIC [13]: > 800 µg/mL | MIC [14]: 25 µg/mL | MIC [15]: > 800 µg/mL | MIC [16]: 800 µg/mL | MIC [17]: 800 µg/mL | MIC [18]: > 800 µg/mL | MIC ([19]; C. freundii 35, 18 h, listed as A (Table 9)): 100 µg/mL | MIC ([19]; C. freundii 35, 18 h, listed as A (Table 10)): 100 µg/mL | MIC ([19]; Citrobacter freundii, 35, 18 h): 50 µg/mL | MIC ([19]; Citrobacter freundii, 35, 18 h, C. freundii 35, 18 h): 100 µg/mL | MIC [20]: 100 µg/mL | MIC [21]: 200 µg/mL | MIC [22]: 25 µg/mL | MIC [23]: 100 µg/mL (≈ 546 µM) | MIC ([24]; 18 h, listed as A (Table 15)): 50 µg/mL | MIC ([24]; Proteus vulgaris, 7, 18 h): 25 µg/mL | MIC [25]: 6.25 µg/mL | MIC [26]: 200 µg/mL | MIC [27]: 400 µg/mL | MIC [28]: 25 µg/mL | MIC [29]: 50 µg/mL | MIC [30]: 400 µg/mL | MIC [31]: 200 µg/mL | MIC ([32]; listed as A (Table 14)): 100 µg/mL | MIC ([32]; Enterobacter cloacae, read-out: MIC): 200 µg/mL | MIC [33]: 50 µg/mL | MIC [34]: 6.25 µg/mL | growth of the test organism ([35]; phosphonic acid salt 0.78 mcg/ml): + | growth of the test organism ([35]; phosphonic acid salt 1.56 mcg/ml): + | growth of the test organism ([35]; phosphonic acid salt 3.13 mcg/ml): + | growth of the test organism ([35]; phosphonic acid salt 6.25 mcg/ml): + | growth of the test organism ([35]; phosphonic acid salt 12.5 mcg/ml): + | growth of the test organism ([35]; phosphonic acid salt 25 mcg/ml): - | MIC [36]: 25 µg/mL
